Here are results for 6 compounds from article PMC12155096 (International Journal of Molecular Sciences, 2025).

The target in data set [1] is T1, CYP3A4 (Homo sapiens, UniProt P08684).
Data set [2] has as its target T2, human CYP2D6 (Homo sapiens, UniProt P10635). Particulars: human; call rule not given here.
In data set [3] the target is T3, human CYP1A2 (Homo sapiens, UniProt P05177).
T3 sequence (P05177 1-516): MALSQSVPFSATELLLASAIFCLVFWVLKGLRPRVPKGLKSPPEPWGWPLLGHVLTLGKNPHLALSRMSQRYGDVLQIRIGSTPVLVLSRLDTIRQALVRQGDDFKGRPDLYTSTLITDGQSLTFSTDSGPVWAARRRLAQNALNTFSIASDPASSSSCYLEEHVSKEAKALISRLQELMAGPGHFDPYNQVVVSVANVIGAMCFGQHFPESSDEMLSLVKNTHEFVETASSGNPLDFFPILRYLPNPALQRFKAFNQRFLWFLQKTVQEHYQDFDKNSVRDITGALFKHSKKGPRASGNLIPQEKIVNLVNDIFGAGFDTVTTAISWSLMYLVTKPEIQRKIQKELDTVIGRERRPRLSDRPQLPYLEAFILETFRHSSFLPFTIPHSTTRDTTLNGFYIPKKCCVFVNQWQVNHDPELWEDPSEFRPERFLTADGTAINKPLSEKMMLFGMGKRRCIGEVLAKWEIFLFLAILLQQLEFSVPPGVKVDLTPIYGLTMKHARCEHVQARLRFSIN
As to the kind of experiment: biochemical. Particulars: for IC50: CYP1A2 IC50 (half-maximal inhibitory concentration).

Data set [4] concerns the target T2, human CYP2D6. As to the kind of experiment: biochemical.
The target in data set [5] is T1, CYP3A4. As to the kind of experiment: biochemical. The following applies: CYP3A4 IC50 (half-maximal inhibitory concentration).
For data set [6], the target named is T4, human CYP2C9 (Homo sapiens, UniProt P11712). Particulars: human.
T4 sequence (P11712 whole entry): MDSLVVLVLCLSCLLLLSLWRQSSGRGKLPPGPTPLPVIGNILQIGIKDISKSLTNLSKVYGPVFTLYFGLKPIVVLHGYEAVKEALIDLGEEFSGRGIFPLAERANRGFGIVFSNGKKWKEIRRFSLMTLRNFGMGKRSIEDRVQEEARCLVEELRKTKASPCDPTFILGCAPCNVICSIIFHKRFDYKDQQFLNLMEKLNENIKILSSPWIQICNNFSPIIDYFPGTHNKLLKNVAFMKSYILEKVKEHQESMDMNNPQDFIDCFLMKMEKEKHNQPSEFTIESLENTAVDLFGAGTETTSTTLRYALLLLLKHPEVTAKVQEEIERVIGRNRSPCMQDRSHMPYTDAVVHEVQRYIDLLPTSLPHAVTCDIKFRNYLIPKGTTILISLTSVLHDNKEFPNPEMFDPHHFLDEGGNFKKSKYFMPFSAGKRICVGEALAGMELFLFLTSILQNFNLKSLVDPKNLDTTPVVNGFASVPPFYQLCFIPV
Data set [7] has as its target Photinus pyralis (firefly) luciferase (Photinus pyralis, UniProt P08659). As to the kind of experiment: biochemical. Format: biochemical.
Data set [8] deals with T3, human CYP1A2. The following applies: human.
Data set [9] concerns the target T5, human CYP2C19 (Homo sapiens, UniProt P33261). The following applies: human.
Data set [10] concerns the target T5, human CYP2C19. As to the kind of experiment: biochemical. Particulars: for IC50: CYP2C19 IC50 (half-maximal inhibitory concentration).
Data set [11] concerns the target T4, human CYP2C9. Put plainly: biochemical.
[12] abbreviates: CYP2D6 IC50 (half-maximal inhibitory concentration).
[13] abbreviates: CYP2C9 IC50 (half-maximal inhibitory concentration).

Like-named read-outs stand apart in the source and are kept apart here.

Sequence of Photinus pyralis (firefly) luciferase (P08659 whole entry): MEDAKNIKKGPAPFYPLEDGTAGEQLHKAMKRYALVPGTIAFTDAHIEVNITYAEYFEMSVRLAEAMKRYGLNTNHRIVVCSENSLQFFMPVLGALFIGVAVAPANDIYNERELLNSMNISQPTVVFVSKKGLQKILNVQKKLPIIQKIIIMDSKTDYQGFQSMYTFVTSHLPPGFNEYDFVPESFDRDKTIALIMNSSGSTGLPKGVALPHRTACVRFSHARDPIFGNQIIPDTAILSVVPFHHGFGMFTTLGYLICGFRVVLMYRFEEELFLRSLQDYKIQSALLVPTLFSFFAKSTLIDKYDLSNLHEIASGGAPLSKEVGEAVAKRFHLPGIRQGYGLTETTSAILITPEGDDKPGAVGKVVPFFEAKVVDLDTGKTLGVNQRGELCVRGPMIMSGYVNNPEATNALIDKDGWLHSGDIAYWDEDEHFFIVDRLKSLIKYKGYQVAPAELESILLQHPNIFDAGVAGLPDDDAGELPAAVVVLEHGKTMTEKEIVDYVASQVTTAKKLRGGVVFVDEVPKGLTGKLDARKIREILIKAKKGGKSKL
T5 sequence (P33261 whole entry): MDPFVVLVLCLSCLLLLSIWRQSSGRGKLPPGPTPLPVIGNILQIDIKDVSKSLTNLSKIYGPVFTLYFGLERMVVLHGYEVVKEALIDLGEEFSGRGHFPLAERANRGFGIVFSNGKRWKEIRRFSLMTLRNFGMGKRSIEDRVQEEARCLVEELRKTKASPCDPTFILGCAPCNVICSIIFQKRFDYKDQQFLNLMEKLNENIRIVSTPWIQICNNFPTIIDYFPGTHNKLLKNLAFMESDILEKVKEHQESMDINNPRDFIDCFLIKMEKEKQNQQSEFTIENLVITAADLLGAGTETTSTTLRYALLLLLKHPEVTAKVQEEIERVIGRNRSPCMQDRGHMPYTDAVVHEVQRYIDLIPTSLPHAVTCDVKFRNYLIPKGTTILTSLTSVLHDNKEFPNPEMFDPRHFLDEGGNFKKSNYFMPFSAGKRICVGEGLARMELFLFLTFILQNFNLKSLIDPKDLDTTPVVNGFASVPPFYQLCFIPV
T1 sequence (P08684 whole entry): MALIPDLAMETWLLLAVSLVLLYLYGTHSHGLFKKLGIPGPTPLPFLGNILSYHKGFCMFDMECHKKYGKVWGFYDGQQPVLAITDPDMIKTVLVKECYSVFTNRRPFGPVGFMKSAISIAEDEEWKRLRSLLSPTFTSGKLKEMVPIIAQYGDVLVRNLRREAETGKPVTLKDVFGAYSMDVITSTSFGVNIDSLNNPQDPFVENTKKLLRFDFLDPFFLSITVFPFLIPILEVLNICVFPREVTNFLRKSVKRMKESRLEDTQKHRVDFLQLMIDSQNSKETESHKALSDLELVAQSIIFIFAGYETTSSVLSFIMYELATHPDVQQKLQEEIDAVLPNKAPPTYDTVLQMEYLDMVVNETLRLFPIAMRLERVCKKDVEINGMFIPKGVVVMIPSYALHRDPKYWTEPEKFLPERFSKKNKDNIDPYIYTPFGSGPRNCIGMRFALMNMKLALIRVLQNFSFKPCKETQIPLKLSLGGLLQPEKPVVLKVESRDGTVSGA
T2 sequence (P10635 whole entry): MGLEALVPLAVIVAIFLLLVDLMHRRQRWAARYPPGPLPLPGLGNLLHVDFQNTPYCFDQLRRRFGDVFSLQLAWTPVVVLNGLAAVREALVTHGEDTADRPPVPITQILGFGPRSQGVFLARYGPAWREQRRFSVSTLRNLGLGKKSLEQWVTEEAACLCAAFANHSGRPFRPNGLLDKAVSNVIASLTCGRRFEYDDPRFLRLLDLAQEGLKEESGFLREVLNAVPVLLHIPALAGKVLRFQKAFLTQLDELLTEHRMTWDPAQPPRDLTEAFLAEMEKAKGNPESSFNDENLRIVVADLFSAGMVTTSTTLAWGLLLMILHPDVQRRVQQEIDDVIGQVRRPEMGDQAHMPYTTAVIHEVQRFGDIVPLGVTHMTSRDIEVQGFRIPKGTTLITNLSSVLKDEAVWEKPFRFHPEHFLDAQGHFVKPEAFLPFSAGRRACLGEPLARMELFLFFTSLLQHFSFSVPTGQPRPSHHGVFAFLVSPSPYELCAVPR

The IC50 is the concentration at which inhibition is half-maximal. Read a low IC50 as inhibition by little substance. For `CC(C1CC1)C(O)(Cn1cncn1)c1ccc(Cl)cc1` (stereo not drawn) [Cyproconazole], the “CYP3A4 Efficacy (in parenthesis)” value at CYP3A4 [1] is given as 0.97 ± 0.57 (-70 ± 7) %. Also, the “CYP2D6 Efficacy (in parenthesis)” value on human CYP2D6 [2] was 38.25 ± 2.49 (-72 ± 6) %. Further, the IC50 was 30.4 µM at human CYP1A2 [3]; 38.3 µM against human CYP2D6 [4] (setting [12]); 970 nM against CYP3A4 [5]; 300 nM on human CYP2C19 [10]; 0.13 µM on human CYP2C9 [11] (setting [13]). In addition, the “CYP2C9 Efficacy (in parenthesis)” value at human CYP2C9 [6] is recorded as 0.13 ± 0.04 (-105 ± 6) %. Moreover, the “Luciferase IC50 (half-maximal inhibitory concentration)” value in data set [7] is listed as “Inactive”. Moreover, at human CYP1A2 [8], the “CYP1A2 Efficacy (in parenthesis)” value is 30.37 ± 9.95 (-33 ± 2) %. Further, the “CYP2C19 Efficacy (in parenthesis)” value at human CYP2C19 [9] is given as 0.3 ± 0.07 (-141 ± 28) %.

Take `CCOP(=S)(OCC)SCn1c(=O)oc2cc(Cl)ccc21` [Phosalone]: on CYP3A4 [1], the “CYP3A4 Efficacy (in parenthesis)” value was 0.3 ± 0.07 (-85 ± 5) %. At human CYP2D6 [2], the “CYP2D6 Efficacy (in parenthesis)” value is given as 15.88 ± 2.02 (-103 ± 4) %. Moreover, the IC50 was 2.98 µM on human CYP1A2 [3]; 15.9 µM at human CYP2D6 [4]; 300 nM against CYP3A4 [5]; 49.6 µM in [7]; 130 nM at human CYP2C19 [10]; 1.21 µM on human CYP2C9 [11]. Further, the “CYP2C9 Efficacy (in parenthesis)” value on human CYP2C9 [6] was 1.21 ± 0.14 (-101 ± 6) %. For the same compound, on human CYP1A2 [8], the “CYP1A2 Efficacy (in parenthesis)” value is 2.98 ± 0.74 (-99 ± 6) %. For the same compound, the “CYP2C19 Efficacy (in parenthesis)” value at human CYP2C19 [9] is 0.13 ± 0.05 (-148 ± 13) %.

On to `CCCOC/C(=N\c1ccc(Cl)cc1C(F)(F)F)n1ccnc1` [Triflumizole], for which the “CYP3A4 Efficacy (in parenthesis)” value at CYP3A4 [1] is 0.21 ± 0.07 (-78 ± 2) %. Also, on human CYP2D6 [2], the “CYP2D6 Efficacy (in parenthesis)” value is 34.28 ± 2.23 (-99 ± 9) %. Also, the IC50 against human CYP1A2 [3] is 9.3 µM; against human CYP2D6 [4] (setting [12]), 34.3 µM; on CYP3A4 [5] it was 210 nM; on human CYP2C19 [10] it was 360 nM; against human CYP2C9 [11] (setting [13]), 3.92 µM. In addition, on human CYP2C9 [6], the “CYP2C9 Efficacy (in parenthesis)” value is reported as 3.92 ± 0.98 (-103 ± 3) %. In addition, the “Luciferase IC50 (half-maximal inhibitory concentration)” value in [7] is “Inactive”. Moreover, the “CYP1A2 Efficacy (in parenthesis)” value on human CYP1A2 [8] was 9.3 ± 0.63 (-102 ± 6) %. Besides, the “CYP2C19 Efficacy (in parenthesis)” value at human CYP2C19 [9] is 0.36 ± 0.3 (-125 ± 6) %.

On to `OC(c1ccc(F)cc1)(c1cncnc1)c1ccccc1Cl` (stereo not drawn) [Nuarimol], for which the “CYP3A4 Efficacy (in parenthesis)” value on CYP3A4 [1] is on record as 0.31 ± 0.08 (-68 ± 6) %. Also, at human CYP2D6 [2], the “CYP2D6 Efficacy (in parenthesis)” value is 35.73 ± 4.11 (-53 ± 5) %. For the same compound, the IC50 on human CYP1A2 [3] stood at 49.4 µM; against human CYP2D6 [4] (setting [12]) it was 35.7 µM; on CYP3A4 [5], 310 nM; against human CYP2C19 [10], 2700 nM; against human CYP2C9 [11] (setting [13]), 23.6 µM. On human CYP2C9 [6], the “CYP2C9 Efficacy (in parenthesis)” value is recorded as 23.57 ± 4.24 (-118 ± 8) %. For the same compound, the “Luciferase IC50 (half-maximal inhibitory concentration)” value in data set [7] is “Inactive”. Also, the “CYP1A2 Efficacy (in parenthesis)” value at human CYP1A2 [8] is given as 49.42 ± 19.58 (-46 ± 6) %. The “CYP2C19 Efficacy (in parenthesis)” value at human CYP2C19 [9] was 2.7 ± 1.21 (-141 ± 5) %.

What is called AC50 is the concentration giving half of the maximal activity seen. Regarding `O=C1C(Cl)C(CCl)CN1c1cccc(C(F)(F)F)c1` (stereo not drawn) [Flurochloridone], the “CYP3A4 Efficacy (in parenthesis)” value on CYP3A4 [1] is given as 6.98 ± 2.77 (42 ± 7) %. Moreover, the half-maximal activity concentration (AC50) at human CYP1A2 [3] (CYP1A2 AC50 (half-maximal activity concentration)) amounted to 1040 nM; on human CYP2D6 [4] (CYP2D6 AC50 (half-maximal activity concentration)) it was 35.9 µM; on human CYP2C19 [10] (CYP2C19 AC50 (half-maximal activity concentration)), 12.3 µM; at human CYP2C9 [11] (CYP2C9 AC50 (half-maximal activity concentration)), 7.82 µM. In addition, the IC50 amounted to 1.04 µM against human CYP1A2 [3], 35.9 µM at human CYP2D6 [4] (setting [12]), 6980 nM at CYP3A4 [5] and 12300 nM at human CYP2C19 [10]. Also, the “CYP2C9 IC50 (half-maximal inhibitory concentration)” value on human CYP2C9 [6] is given as 7.82 ± 1.95 (82 ± 14) µM. The “Luciferase IC50 (half-maximal inhibitory concentration)” value in data set [7] is given as “Inactive”.

Turning to `CC(C)(C)C(O)(CCc1ccc(Cl)cc1)Cn1cncn1` (stereo not drawn) [Tebuconazole], the “CYP3A4 Efficacy (in parenthesis)” value on CYP3A4 [1] is reported as 0.21 ± 0.04 (-90 ± 1) %. The “CYP2D6 Efficacy (in parenthesis)” value at human CYP2D6 [2] is 34.28 ± 2.23 (-82 ± 7) %. In addition, the IC50 against human CYP1A2 [3] was 31.9 µM; against human CYP2D6 [4] (setting [12]), 34.3 µM; at CYP3A4 [5] it was 210 nM; against human CYP2C19 [10] it was 450 nM; against human CYP2C9 [11] (setting [13]), 3.3 µM. Also, the “CYP2C9 Efficacy (in parenthesis)” value at human CYP2C9 [6] is given as 3.3 ± 0.22 (-104 ± 4) %. Also, the “Luciferase IC50 (half-maximal inhibitory concentration)” value in data set [7] was “Inactive”. At human CYP1A2 [8], the “CYP1A2 Efficacy (in parenthesis)” value was 31.85 ± 3.66 (-77 ± 8) %. Besides, the “CYP2C19 Efficacy (in parenthesis)” value at human CYP2C19 [9] was 0.45 ± 0.0 (-115 ± 9) %.
